Read-outs that look alike come from different tables or passages of the source. Marks after values point to notes of the source that are not given here.
Biological target: T1, F508delCFTR (Homo sapiens, UniProt P13569, DEL508-508)
T1 construct: expressed in transfected cells; host or cells: CFBE41o- human lung derived epithelial cells (CFBE41o-F508delCFTR-HRP), doxycycline-inducible
Test: Cell Surface Expression-Horse Radish Peroxidase (CSE-HRP) Assay;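 for EC50 (with co-corrector): co-corrector chromenyl benzoic acid corrector at 2 or 3 µM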;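 for Maximum % activity (without co-corrector): % of on-plate positive control chromenyl benzoic acid corrector at 2 or 3 µM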
Format: cell-based
Conditions: for Emax: read-out: Maximum % activity (without co-corrector)
Summary of the method: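 Corrector compounds were given as 8-point 3-fold series from 20 or 30 μM, with or without a 2 μM co-corrector, for 18-24 h at 33 °C. Surface HRP was read by luminol luminescence as % of positive control; variable-Hill-slope sigmoidal fitting gave EC50 from triplicate plates.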

[1] = test compound alone, without co-corrector, read-out: EC50 (without co-corrector)
[2] = with co-corrector, maximum at any tested concentration
[3] = with co-corrector, read-out: EC50 (with co-corrector)
[4] = without co-corrector, maximum at any tested concentration
[5] = test compound with co-corrector, maximum at any tested concentration
[6] = test compound with co-corrector, read-out: EC50 (with co-corrector)
[7] = test compound without co-corrector, maximum at any tested concentration
[8] = test compound without co-corrector, read-out: EC50 (without co-corrector)
[9] = test compound with co-corrector
[10] = test compound without co-corrector

T1 sequence (P13569 with tags, fused parts or gaps DEL508-508): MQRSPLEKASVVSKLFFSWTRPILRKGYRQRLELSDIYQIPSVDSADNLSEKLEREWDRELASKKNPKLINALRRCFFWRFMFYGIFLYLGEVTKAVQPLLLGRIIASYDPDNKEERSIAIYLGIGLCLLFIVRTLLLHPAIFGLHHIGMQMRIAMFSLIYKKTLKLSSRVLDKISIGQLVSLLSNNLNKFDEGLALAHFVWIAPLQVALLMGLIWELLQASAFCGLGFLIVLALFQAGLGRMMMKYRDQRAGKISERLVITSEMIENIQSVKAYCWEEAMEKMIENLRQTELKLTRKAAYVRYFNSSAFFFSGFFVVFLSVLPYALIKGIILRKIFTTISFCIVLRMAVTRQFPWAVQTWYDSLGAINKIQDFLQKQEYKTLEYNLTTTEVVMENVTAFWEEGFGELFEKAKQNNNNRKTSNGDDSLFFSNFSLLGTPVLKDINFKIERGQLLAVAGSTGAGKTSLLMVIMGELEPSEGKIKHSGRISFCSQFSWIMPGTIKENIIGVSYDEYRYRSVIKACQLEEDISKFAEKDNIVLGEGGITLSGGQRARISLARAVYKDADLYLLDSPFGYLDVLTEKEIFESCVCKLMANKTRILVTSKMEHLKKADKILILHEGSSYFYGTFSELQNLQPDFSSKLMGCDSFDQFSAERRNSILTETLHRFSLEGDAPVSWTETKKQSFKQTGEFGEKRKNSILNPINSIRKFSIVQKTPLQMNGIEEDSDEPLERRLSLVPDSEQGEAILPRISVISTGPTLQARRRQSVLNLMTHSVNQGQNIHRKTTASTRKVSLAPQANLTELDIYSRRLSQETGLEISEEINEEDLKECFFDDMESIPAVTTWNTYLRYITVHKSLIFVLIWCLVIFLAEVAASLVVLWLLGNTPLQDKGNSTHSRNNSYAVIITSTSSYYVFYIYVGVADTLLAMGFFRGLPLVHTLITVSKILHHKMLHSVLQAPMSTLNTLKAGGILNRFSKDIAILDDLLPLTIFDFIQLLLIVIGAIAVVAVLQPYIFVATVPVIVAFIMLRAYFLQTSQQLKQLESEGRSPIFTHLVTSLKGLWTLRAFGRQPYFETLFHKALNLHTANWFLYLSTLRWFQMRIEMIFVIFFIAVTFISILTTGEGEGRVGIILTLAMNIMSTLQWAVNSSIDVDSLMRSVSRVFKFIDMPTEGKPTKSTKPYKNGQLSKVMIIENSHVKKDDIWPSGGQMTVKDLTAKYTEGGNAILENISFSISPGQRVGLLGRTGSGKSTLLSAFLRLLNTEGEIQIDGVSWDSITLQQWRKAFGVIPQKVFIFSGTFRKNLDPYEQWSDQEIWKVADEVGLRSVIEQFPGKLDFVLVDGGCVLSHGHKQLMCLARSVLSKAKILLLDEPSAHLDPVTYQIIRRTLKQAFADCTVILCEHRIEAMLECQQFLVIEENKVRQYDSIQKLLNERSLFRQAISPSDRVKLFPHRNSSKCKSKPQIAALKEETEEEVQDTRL

EC50 [1] [µM]	Maximum % activity (with co-corrector) [2]	EC50 [3] [µM]	Emax [4] [%]	Maximum % activity (with co-corrector) [5]	EC50 [6] [µM]	Emax [7] [%]	EC50 [8] [µM]	EC50 (with co-corrector) [9]	EC50 (without co-corrector) [10]	SMILES	Emax [%]
–	–	–	–	++ (≥150 and <350)	> 10	50 to 150	> 10	–	–	CCc1cnc(N2CCOCC2)c(C2(C(=O)NS(=O)(=O)c3cccc4ncccc34)CC2)c1 [GIII-23]	–
–	–	–	–	++ (≥150 and <350)	–	50 to 150	–	++^a	++^a	COCCOc1ncc(OC)cc1C1(C(=O)NS(=O)(=O)c2cccc3ncccc23)CC1 [GII-44, 1-[5-methoxy-2-(2-methoxyethoxy)pyridin-3-yl]-N-(quinoline-5-sulfonyl)cyclopropane-1-carboxamide]	–
–	–	–	–	++ (≥150 and <350)	–	< 50	–	++^a	++^a	COc1ncc(C2(C(=O)NS(=O)(=O)c3cccc4ccccc34)CC2)c(OC)n1 [GII-1, 1-(2,4-dimethoxypyrimidin-5-yl)-N-(naphthalene-1-sulfonyl)cyclopropane-1-carboxamide]	–
–	–	–	–	+++ (≥350)	3 to 10	50 to 150	–	–	++^a	Cc1cnc(N(C)C)cc1C1(C(=O)NS(=O)(=O)c2cccc3ncccc23)CC1 [GII-11, 1-[2-(dimethylamino)-5-methylpyridin-4-yl]-N-(quinoline-5-sulfonyl)cyclopropane-1-carboxamide]	–
–	–	–	–	++ (≥150 and <350)	–	50 to 150	–	++^a	++^a	O=C(NS(=O)(=O)c1cccc2ncccc12)C1(c2cc(C3CC3)cnc2N2CCOCC2)CC1 [GIII-25]	–
–	–	–	–	+++ (≥350)	3 to 10	> 150	3 to 10	–	–	CCc1cnc(N2CCC(OC)CC2)c(C2(C(=O)NS(=O)(=O)c3cccc4ncccc34)CC2)c1 [GII-57, 1-[5-ethyl-2-(4-methoxypiperidin-1-yl)pyridin-3-yl]-N-(quinoline-5-sulfonyl)cyclopropane-1-carboxamide]	–
–	–	–	–	+ (<150)	> 10	< 50	> 10	–	–	O=C(NS(=O)(=O)c1cccc2ncccc12)C1(c2cc(Cl)cnc2F)CC1 [GIII-34]	–
–	–	–	–	+ (<150)	> 10	< 50	> 10	–	–	O=C(NS(=O)(=O)c1cccc2ncccc12)C1(c2ccc(C(F)(F)F)nc2Cl)CC1 [GIII-29]	–
–	–	–	–	++ (≥150 and <350)	3 to 10	50 to 150	3 to 10	–	–	COc1cc(C2(C(=O)NS(=O)(=O)c3cccc4ncccc34)CC2)c(Cl)cn1 [GII-6, 1-(5-chloro-2-methoxypyridin-4-yl)-N-(quinoline-5-sulfonyl)cyclopropane-1-carboxamide]	–
3 to 10	+++ (≥350)	3 to 10	> 150	–	–	–	–	–	–	O=C(NS(=O)(=O)c1cccc2ncccc12)C1(c2cccc(Br)c2)CC1 [Example III-93, 1-(3-bromophenyl)-N-(quinoline-5-sulfonyl)cyclopropane-1-carboxamide]	–
–	–	–	–	+++ (≥350)	3 to 10	> 150	3 to 10	–	–	CCc1cnc(N2CCC(OC)CC2)c(C2(C(=O)NS(=O)(=O)c3cccc4[nH]ccc34)CC2)c1 [GII-58, 1-[5-ethyl-2-(4-methoxypiperidin-1-yl)pyridin-3-yl]-N-(1H-indole-4-sulfonyl)cyclopropane-1-carboxamide]	–
> 10	+ (<150)	> 10	< 50	–	–	–	–	–	–	O=C(NS(=O)(=O)C(F)(F)F)C1(c2ccc(Cl)cc2Cl)CC1 [Example III-105, 1-(2,4-dichlorophenyl)-N-(trifluoromethanesulfonyl)cyclopropane-1-carboxamide]	–

The remaining lines, values behind:

SMILES	EC50 [1] [µM]	Maximum % activity (with co-corrector) [2]	EC50 [3] [µM]	Emax [4] [%]	Maximum % activity (with co-corrector) [5]	EC50 [6] [µM]	Emax [7] [%]	EC50 [8] [µM]	EC50 (with co-corrector) [9]	EC50 (without co-corrector) [10]	Emax [%]
COc1cc(OC(C)C)c(C2(C(=O)NS(=O)(=O)c3cccc4ncccc34)CC2)cn1 [Example GI-17, 1-{6-methoxy-4-[(propan-2-yl)oxy]pyridin-3-yl}-N-(quinoline-5-sulfonyl)cyclopropane-1-carboxamide]	3 to 10	+++ (≥350)	< 3	> 150	–	–	–	–	–	–	–
COc1ccc(Br)cc1C1(C(=O)NS(=O)(=O)c2cccc3c2CCCN3)CCC1 [Example I-9, 1-(5-bromo-2-methoxyphenyl)-N-(1,2,3,4-tetrahydroquinoline-5-sulfonyl)cyclobutane-1-carboxamide]	< 3	+++ (≥350)	< 3	> 150	–	–	–	–	–	–	–
CCn1nc(C)cc1C1(C(=O)NS(=O)(=O)c2cccc3ccccc23)CC1 [II-4]	3 to 10	+++ (≥350)	3 to 10	50 to 150	–	–	–	–	–	–	–
COc1ccc(C(F)(F)F)cc1C1(C(=O)NS(=O)(=O)c2cccc3ncccc23)CC1 [Example I-37, 1-[2-methoxy-5-(trifluoromethyl)phenyl]-N-(quinoline-5-sulfonyl)cyclopropane-1-carboxamide]	< 3	+++ (≥350)	< 3	> 150	–	–	–	–	–	–	–
COc1ccc(C)c(OC)c1C1(C(=O)NS(=O)(=O)c2cccc3ccccc23)CC1 [Example I-40, 1-(2,6-dimethoxy-3-methylphenyl)-N-(naphthalene-1-sulfonyl)cyclopropane-1-carboxamide]	< 3	+++ (≥350)	< 3	> 150	–	–	–	–	–	–	–
COC(=O)c1ccc(OC)c(C2(C(=O)NS(=O)(=O)c3cccc4ccccc34)CC2)c1 [II-32]	3 to 10	+++ (≥350)	< 3	–	–	–	–	–	–	–	> 150
CCOc1ncc(C2CCC2)cc1C1(C(=O)NS(=O)(=O)c2cccc3ncccc23)CC1 [Example GI-114, 1-(5-cyclobutyl-2-ethoxypyridin-3-yl)-N-(quinoline-5-sulfonyl)cyclopropane-1-carboxamide]	–	–	–	–	+++ (≥350)	< 3	> 150	3 to 10	–	–	–
COc1ccc(C2CCCC2)cc1C1(C(=O)NS(=O)(=O)c2cccc3c2CCCN3)CCC1 [II-21]	< 3	+++ (≥350)	< 3	> 150	–	–	–	–	–	–	–
Cc1ccc2c(S(=O)(=O)NC(=O)C3(c4cc(C5CC5)cnc4OCC(C)C)CC3)cccc2n1 [Example GI-49, 1-[5-cyclopropyl-2-(2-methylpropoxy)pyridin-3-yl]-N-(2-methylquinoline-5-sulfonyl)cyclopropane-1-carboxamide]	–	–	–	–	+++ (≥350)	< 3	> 150	< 3	–	–	–
COc1ccc(OC2CCOC2)cc1C1(C(=O)NS(=O)(=O)c2cccc3ncccc23)CC1 (centres unmarked) [II-23]	3 to 10	+++ (≥350)	3 to 10	50 to 150	–	–	–	–	–	–	–
CCOc1ccc(C2(OC)CCC2)cc1C1(C(=O)NS(=O)(=O)c2cccc3nc(C)ccc23)CC1 [Example I-105, 1-[2-ethoxy-5-(1-methoxycyclobutyl)phenyl]-N-(2-methylquinoline-5-sulfonyl)cyclopropane-1-carboxamide]	< 3	+++ (≥350)	< 3	> 150	–	–	–	–	–	–	–
CC(C)COc1ncc(C2CCC2)cc1C1(C(=O)NS(=O)(=O)c2cccc3ncccc23)CC1 [Example GI-51, 1-[5-cyclobutyl-2-(2-methylpropoxy)pyridin-3-yl]-N-(quinoline-5-sulfonyl)cyclopropane-1-carboxamide]	–	–	–	–	+++ (≥350)	< 3	> 150	< 3	–	–	–
Cc1cnc(OC(C)C)c(C2(C(=O)NS(=O)(=O)c3cccc4nc(N)ccc34)CC2)c1 [Example I-97, N-(2-aminoquinoline-5-sulfonyl)-1-{5-methyl-2-[(propan-2-yl)oxy]pyridin-3-yl}cyclopropane-1-carboxamide]	< 3	+++ (≥350)	< 3	> 150	–	–	–	–	–	–	–
O=C(NS(=O)(=O)c1cccc2[nH]ccc12)C1(c2cc(C3CCC3)cnc2OCC2CC2)CC1 [Example GI-98, 1-[5-cyclobutyl-2-(cyclopropylmethoxy)pyridin-3-yl]-N-(1H-indole-4-sulfonyl)cyclopropane-1-carboxamide]	–	–	–	–	+++ (≥350)	< 3	> 150	< 3	–	–	–
COc1cc(F)c(C(C)C)cc1C1(C(=O)NS(=O)(=O)c2cccc3c2CCCN3)CC1 [II-27]	< 3	+++ (≥350)	< 3	> 150	–	–	–	–	–	–	–
COc1ncc(C2CCC2)c(C)c1C1(C(=O)NS(=O)(=O)c2cccc3ccn(C)c23)CC1 [II-42]	3 to 10	+++ (≥350)	< 3	50 to 150	–	–	–	–	–	–	–
CC(C)Oc1cnc(C2CCC2)cc1C1(C(=O)NS(=O)(=O)c2cccc3ncccc23)CC1 [Example GI-25, 1-{2-cyclobutyl-5-[(propan-2-yl)oxy]pyridin-4-yl}-N-(quinoline-5-sulfonyl)cyclopropane-1-carboxamide]	3 to 10	+++ (≥350)	< 3	> 150	–	–	–	–	–	–	–

From patent US10829473B2, “Modulators of the cystic fibrosis transmembrane conductance regulator protein and methods of use” (AbbVie Overseas S.Á.R.L., priority 2017, dated 2020)
